Results: patent publication US5834521A, “Substituted dibenz (A F)azulenes and methods of preparation” (Ortho Pharmaceutical Corporation, priority 1996, dated 1998)

Key:
[1] = biological target: T1, Progestin Receptor (Oryctolagus cuniculus, UniProt P06186); test: Progestin Receptor Binding (competitive binding, 3H-promegestone, rabbit uterus receptor preparation); set-up: species or system New Zealand rabbits; conditions: 3H-promegestone displacement, 4° C., 18 h
T1 construct: The high speed supernatant fraction was used as the receptor preparation; from tissue; host or cells: uterus of New Zealand rabbits, 200,000×g supernatant (cytosol)
T1 sequence (P06186 1-930): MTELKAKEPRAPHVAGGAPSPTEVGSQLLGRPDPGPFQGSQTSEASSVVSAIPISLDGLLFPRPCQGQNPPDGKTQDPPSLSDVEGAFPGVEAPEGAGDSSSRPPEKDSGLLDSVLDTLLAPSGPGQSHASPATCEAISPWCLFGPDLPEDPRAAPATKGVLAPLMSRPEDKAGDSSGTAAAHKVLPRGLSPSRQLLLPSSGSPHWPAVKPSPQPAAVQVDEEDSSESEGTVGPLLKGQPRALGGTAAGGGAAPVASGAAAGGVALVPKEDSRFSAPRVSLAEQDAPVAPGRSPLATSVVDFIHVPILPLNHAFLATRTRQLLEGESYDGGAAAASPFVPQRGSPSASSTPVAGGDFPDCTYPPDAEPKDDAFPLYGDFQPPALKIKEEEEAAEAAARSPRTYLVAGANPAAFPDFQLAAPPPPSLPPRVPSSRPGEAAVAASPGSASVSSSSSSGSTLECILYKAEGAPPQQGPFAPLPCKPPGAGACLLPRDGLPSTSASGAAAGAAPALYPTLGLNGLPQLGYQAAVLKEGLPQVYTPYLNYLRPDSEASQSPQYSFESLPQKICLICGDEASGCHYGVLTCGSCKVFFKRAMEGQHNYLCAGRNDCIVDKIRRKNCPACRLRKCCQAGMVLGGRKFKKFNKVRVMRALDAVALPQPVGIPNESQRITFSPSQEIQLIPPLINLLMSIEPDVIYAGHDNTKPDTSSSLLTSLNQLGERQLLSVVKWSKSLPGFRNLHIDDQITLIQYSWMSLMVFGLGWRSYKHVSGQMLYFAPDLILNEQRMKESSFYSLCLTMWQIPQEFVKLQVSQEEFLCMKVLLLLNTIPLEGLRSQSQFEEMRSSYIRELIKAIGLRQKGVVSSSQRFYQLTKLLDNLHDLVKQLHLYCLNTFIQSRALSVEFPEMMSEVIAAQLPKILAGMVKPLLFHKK
Method: Progestin Receptor Binding
The procedure used was essentially that of J. L. McGuire, C.
Uteri from New Zealand rabbits (1.5 to 2.5 kg) were placed in a cold buffer A (0.01 mol Tris-HCl, pH 8.0, 0.001 mol EDTA, 0.25 mol sucrose). The uteri were minced, washed and homogenized in cold buffer A. The homogenate (2 g wet tissue/mL buffer) was centrifuged at 200,000×g for 1 h at 4° C. The high speed supernatant fraction was used as the receptor preparation.
A competitive binding assay was performed by mixing 3H-promegestone with the receptor preparation and adding a known amount of unlabeled compound. This mixture was incubated at 4° C. for 18 h. The compounds bound to the receptor were separated from those which were free in solution using dextran coated charcoal and the amount of isotope bound to the receptor was determined by scintillation counting. The extent of the compound's interaction with the receptor is measured as the percent reduction in the total isotope bound caused by the unlabeled test compound as compared to the control levels. The receptor screen consists of measuring the reduction in the total isotope bound caused by the unlabeled test compound at […] final concentrations.

[2] = system: T47D human breast carcinoma cells; test: Assay to Demonstrate Ability to Increase Breast Cell Proliferation ([3H]-thymidine incorporation); format: cell-based; conditions: at the concentration of the same table line, control level set at 100%
Method: This assay is used to measure the sex steroid effects of compounds. The activity of compounds in this assay is an indication of their potential use as replacements for naturally occuring hormones in individuals with sex hormone deficiencies.
T47D human breast carcinoma cells are grown in 96-well plates in phenol-red free nutrient media at 37° C. for 48 hours. Conditioned media is removed and replaced with fresh media containing test compounds dissolved in DMSO (0.1% final concentration) and the cells are incubated for an additional 18-20 hours at 37° C. [^3 H]-thymidine is added to each well and allowed to incorporate into DNA for 4 hours. Unlabeled thymidine is then added to terminate the reaction, and the cultures are then washed, trypsinized and harvested. The amount of [^3 H]-thymidineincorporated into DNA is determined by liquid scintillation. Data for each well are expressed as a percent above control level, which is set at 100%. The concentration at which maximal deviation from control is found and the magnitude of that percent deviation is reported. Table T lists the data for some of the compounds of this invention.

[3] = system: endometrial proliferation; test: Assay to Determine Effect of Compound on Uterine Proliferation (Clauberg Test); format: in vivo, immature female white rabbits; conditions: 40 mg/kg subcutaneously; scale 0 (no response)-4 (maximum response); estradiol-primed immature rabbits, daily for five days
Method: Assay to Determine Effect of Compound on Uterine Proliferation
The procedure used was essentially that of M. K. McPhail, J. Physiology, 83, 145 (1934). Groups of immature female white rabbits (750-950 g) were primed with a daily subcutaneous injection, for 6 days, with 5 micrograms of 17β-estradiol in 0.2 ml of sesame oil. Starting on the 7th day, they received the test compound daily for five days in the appropriate vehicle. The rabbits were sacrificed approximately 24 hours after the last administration, and the uteri were excised, cleaned and weighed. Portions of both uterine horns were fixed in 10% neutral formalin, sectioned at […] and stained with hematoxylin and eosin. Progestational activity was assessed as in the McGinty Test. The evaluation for endometrial proliferation was made according to a McPhail Index. Each slide was graded for each rabbit on a 0 (no response)-4 (maximum response) scale.

Molecule	IC50 [1] [nM]	% control (magnitude of maximal deviation from control) [2] [%]	McPhail Index [3]
CCC12Cc3cc(OC)ccc3CC=C1c1ccccc1C2 (stereo not drawn) [Compound 43]	57	151	
CCC[C@]12Cc3ccccc3C1=C[C@@H](C)c1ccc(OC)cc1C2 (relative stereo) [Compound 38]	25	189	4
COc1ccc2c(c1)CC1(C)Cc3cc(OC)ccc3C1C(O)C2C (stereo not drawn) [Compound 78]		112	
COc1ccc2c(c1)CC1(C)Cc3cc(F)ccc3C1C(O)C2C (stereo not drawn) [Compound 45]	115	191	
CCC[C@]12Cc3ccccc3C1=C[C@@H](C)c1ccc(N)cc1C2 (relative stereo) [Compound 85]	19	215	
COc1ccc2c(c1)CC1(C)Cc3cc(F)ccc3C1=CC2C (stereo not drawn) [Compound 30, 2-Fluoro-6,11,11a,12-tetrahydro-9-methoxy-6,11a-dimethyldibenz[a,f]azulene]	6	204	
Cc1ccc2c(c1)CC1(C)Cc3ccccc3C1=CC2 (stereo not drawn) [Compound 70]	42	173	
COc1ccc2c(c1)CC1(C)Cc3cccc(OC(C)=O)c3CC=C21 (stereo not drawn) [Compound 117]	93	160	
CC(=O)Oc1cccc2c1CC=C1c3ccc(F)cc3CC1(C)C2 (stereo not drawn) [Compound 113]	6	470	
CC1CC2c3ccc(F)cc3CC2(C)Cc2cc(Oc3nnnn3-c3ccccc3)ccc21 (stereo not drawn) [Compound 63, 6,11a-Dimethyl-2-fluoro-9-(1-phenyl-5-tetrazolyl)-oxy-4b,5,6,11,11a,12-hexahydrodibenz[a,f]azulene]	55	94	
CC1CC2c3ccccc3CC2(C)Cc2cc(F)ccc21 (stereo not drawn) [Compound 88, 6,11a-Dimethyl-9-fluoro-4b,5,6,11,11a,12-hexahydrodibenz[a,f]azulene]	34	187	
CCC12Cc3ccccc3C(C)CC1c1ccccc1C2 (stereo not drawn) [Compound 53]	57	50	
CCCC12Cc3cc(OC)ccc3CC=C1c1ccccc1C2 (stereo not drawn) [Compound 27]	27	224	
COc1cc2c(cc1[N+](=O)[O-])C(C)C(O[N+](=O)[O-])C1c3ccccc3CC1(C)C2 (stereo not drawn) [Compound 81, 5-(6,11a,-Dimethyl-9-methoxy-8-nitro-4b,5,6,11,11a,12-hexahydro)dibenz[a,f]azulenyl nitrate ester]	82	56	
COc1ccc2c(c1)C[C@@]1(C)Cc3ccccc3[C@@H]1C[C@H]2C (relative stereo) [Compound 16]	353		
4b,5,6,11,11a,12-Hexahydro-7-methoxy-6,11a-dimethyldibenz-[a,f]azulene [Compound 109]	1250		
CCC12Cc3cc(OC)ccc3CC=C1c1ccc(OC)cc1C2 (stereo not drawn) [Compound 37]	2600		
CCC12Cc3ccccc3C1=CCc1c(cccc1OC)C2 (stereo not drawn) [Compound 52]	68		
CC(=O)Oc1cc2c(c(OC(C)=O)c1)[C@H](C)C[C@@H]1c3ccccc3C[C@]1(C)C2 (relative stereo) [Compound 87]	729		
COc1ccc2c(c1)CC1(C)Cc3ccccc3C1C(=O)C2C (stereo not drawn) [Compound 14, 6,11a-Dimethyl-9-methoxy-5-oxo-4b,5,6,11,11a,12-hexahydrodibenz[a,f]azulene]	212		
CCC[C@@]12Cc3cc(OC)ccc3CC[C@@H]1c1ccc(OC)cc1C2 (relative stereo) [Compound 71]	439		
CCC[C@]12Cc3ccccc3C1=C[C@@H](C)c1ccc(NC(C)=O)cc1C2 (relative stereo) [Compound 84]	161		
CCC[C@@]12Cc3cc(OC)ccc3CC[C@@H]1c1ccc(F)cc1C2 (relative stereo) [Compound 72]	100		
COc1ccc2c(c1)CC1(C)Cc3cc(OC)ccc3C1C(=O)C2 (stereo not drawn) [Compound 75]	555		
CC(=O)Nc1ccc2c(c1)CC1(C)Cc3ccccc3C1=CC2 (stereo not drawn) [Compound 95]	1770		
C[C@@H]1CC2c3ccccc3C[C@]2(C)Cc2cc(O)ccc21 (stereo partly drawn) [Compound 12]	456		
COc1ccc2c(c1)CC1(C)Cc3cc(OC)ccc3C1=CC2 (stereo not drawn) [Compound 34, 6,11,11a,12-Tetrahydro-2,9-dimethoxy-11a-methyl-dibenz[a,f]azulene]	425		
CC12Cc3ccccc3C1CCc1c(N)cccc1C2 (stereo not drawn) [Compound 96]	34		
